Where two headings read alike, the source gives them in different places.
Columns and labels:
RKO = assay: cells; type: cell-based; settings: for IC50: read-out: Basal_Viability ATP RKO summarized IC50
DLD-1 = assay: cells; type: cell-based; settings: for IC50: read-out: Basal_Viability ATP DLD-1 summarized IC50
SW480 = assay: cells; type: cell-based; settings: for IC50: read-out: Basal_Viability ATP SW480 summarized IC50
HT-29 = assay: cells; type: cell-based; settings: for IC50: read-out: Basal_Viability ATP HT-29 summarized IC50
SNU-C1 = assay: cells; type: cell-based; settings: for IC50: read-out: Basal_Viability ATP SNU-C1 summarized IC50
HCT116 = assay: cells; type: cell-based; settings: for IC50: read-out: Basal_Viability ATP HCT116 summarized IC50
Colo320 = assay: cells; type: cell-based; settings: for IC50: read-out: Basal_Viability ATP Colo 320 summarized IC50
[1] = system: ECFC/ADSC co-culture cell nuclei number
[2] = system: endothelial tube formation in co-cultures of ECFCs and ADSCs treated with VEGF; assay: cells; type: cell-based, human
[3] = system: HCT116 cells treated with a GSK3β inhibitor; assay: cells; type: cell-based; settings: assay number 26, GSK3b inhibitor pretreated
HeLa cells = assay: cells; type: cell-based;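 for Hela CellCycMod PI 4N summarized IC50: value tracks stimulation of 4N DNA content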

Cc1ccc(Cl)c(Nc2ccccc2C(=O)[O-])c1Cl.[Na+] [NCGC00023217-08]
Basal_Viability ATP RKO IC50/EC50 (RKO; assay number 29, basal): > 20 µM | Basal_Viability ATP DLD-1 IC50/EC50 (DLD-1; assay number 23, basal): 15.1129 µM | Basal_Viability ATP SW480 IC50/EC50 (SW480; assay number 24, basal): > 20 µM | Basal_Viability ATP HT-29 IC50/EC50 (HT-29; assay number 28, basal): > 20 µM | Basal_Viability ATP SNU-C1 IC50/EC50 (SNU-C1; assay number 30, basal): > 20 µM | Basal_Viability ATP HCT116 IC50/EC50 (HCT116; assay number 25, basal): > 20 µM | Basal_Viability ATP Colo 320 IC50/EC50 (Colo320; assay number 27, basal): > 20 µM

Cc1onc(-c2ccccc2)c1-c1ccc(S(N)(=O)=O)cc1 [NCGC00095129-06]
Basal_Viability ATP RKO IC50/EC50 (RKO): > 20 µM | Basal_Viability ATP DLD-1 IC50/EC50 (DLD-1): > 20 µM | Basal_Viability ATP SW480 IC50/EC50 (SW480): > 20 µM | Basal_Viability ATP HT-29 IC50/EC50 (HT-29): > 20 µM | Basal_Viability ATP SNU-C1 IC50/EC50 (SNU-C1): > 20 µM | Basal_Viability ATP HCT116 IC50/EC50 (HCT116): > 20 µM | Basal_Viability ATP Colo 320 IC50/EC50 (Colo320): > 20 µM

O=C(O)c1ccccc1OP(=O)(O)O [NCGC00016668-06]
IC50 (RKO; assay number 29, basal): > 20 µM | IC50 (DLD-1; assay number 23, basal): > 20 µM | IC50 (SW480; assay number 24, basal): > 20 µM | IC50 (HT-29; assay number 28, basal): > 20 µM | IC50 (SNU-C1; assay number 30, basal): > 20 µM | IC50 (HCT116; assay number 25, basal): > 20 µM | IC50 (Colo320; assay number 27, basal): > 20 µM

Oc1c(Cl)cc(Cl)c(Cl)c1Cc1c(O)c(Cl)cc(Cl)c1Cl [NCGC00091195-08]
IC50 (RKO): 0.108 µM | IC50 (DLD-1): 0.0157 µM | IC50 (SW480): 0.003 µM | IC50 (HT-29): 0.46 µM | IC50 (SNU-C1): 0.032 µM | IC50 (HCT116): 0.0312 µM | IC50 (Colo320): 0.0572 µM

CC(C(=O)O)c1cccc(C(=O)c2ccccc2)c1 (centres unmarked) [NCGC00015578-12]
Basal_Viability ATP DLD-1 IC50/EC50 (DLD-1; assay number 23, basal): 8.6441 µM | Basal_Viability ATP SW480 IC50/EC50 (SW480; assay number 24, basal): 10.2684 µM | Basal_Viability ATP HT-29 IC50/EC50 (HT-29; assay number 28, basal): 14.387 µM | Basal_Viability ATP SNU-C1 IC50/EC50 (SNU-C1; assay number 30, basal): 3.7959 µM | Basal_Viability ATP HCT116 IC50/EC50 (HCT116; assay number 25, basal): 10.487 µM

Clc1ccc(C(Cn2ccnc2)OCc2ccc(Sc3ccccc3)cc2)c(Cl)c1 (centres unmarked) [NCGC00253713-01]
VEGF_ADSC\ECFC Angio Hoechst NucArea IC50/EC50 [1]: > 10 µM | Basal_Viability ATP RKO IC50/EC50 (RKO; assay number 29): 6.141 µM | Basal_Viability ATP DLD-1 IC50/EC50 (DLD-1; assay number 23): 7.7564 µM | VEGF_ADSC\ECFC Angio CD31 TubeArea IC50/EC50 [2]: > 10 µM | Basal_Viability ATP SW480 IC50/EC50 (SW480; assay number 24): 7.4367 µM | Basal_Viability ATP HT-29 IC50/EC50 (HT-29; assay number 28): > 20 µM | GSK3b inh pretreated_Viability ATP HCT116 IC50/EC50 [3]: 6.7686 µM | Basal_Viability ATP HCT116 IC50/EC50 (HCT116; assay number 25, basal): 7.7123 µM | Basal_Viability ATP Colo 320 IC50/EC50 (Colo320; assay number 27): 7.0587 µM

O.O=C1[O][Bi][O]c2ccccc21 [NCGC00166299-03]
Basal_Viability ATP RKO IC50/EC50 (RKO; assay number 29, basal): > 20 µM | Basal_Viability ATP DLD-1 IC50/EC50 (DLD-1; assay number 23, basal): > 20 µM | Basal_Viability ATP SW480 IC50/EC50 (SW480; assay number 24, basal): > 20 µM | Basal_Viability ATP HT-29 IC50/EC50 (HT-29; assay number 28, basal): > 20 µM | Basal_Viability ATP SNU-C1 IC50/EC50 (SNU-C1; assay number 30, basal): 15.3838 µM | Basal_Viability ATP HCT116 IC50/EC50 (HCT116; assay number 25, basal): > 20 µM | Basal_Viability ATP Colo 320 IC50/EC50 (Colo320; assay number 27, basal): > 20 µM

O=c1c(C2CC(c3ccc(-c4ccc(Br)cc4)cc3)Cc3ccccc32)c(O)sc2ccccc12 (centres unmarked) [NCGC00262959-01]
Basal_Viability ATP RKO IC50/EC50 (RKO; assay number 29): 0.5378 µM | Basal_Viability ATP DLD-1 IC50/EC50 (DLD-1; assay number 23): 0.239 µM | Basal_Viability ATP SW480 IC50/EC50 (SW480; assay number 24): 0.187 µM | Basal_Viability ATP HT-29 IC50/EC50 (HT-29; assay number 28): 0.4364 µM | Basal_Viability ATP SNU-C1 IC50/EC50 (SNU-C1; assay number 30): 0.2516 µM | Basal_Viability ATP HCT116 IC50/EC50 (HCT116; assay number 25, basal): 0.4855 µM | Basal_Viability ATP Colo 320 IC50/EC50 (Colo320; assay number 27): 0.7354 µM

CCN(CCO)CCCC(C)Nc1ccnc2cc(Cl)ccc12.O=S(=O)(O)O (centres unmarked) [NCGC00159483-04]
Basal_Viability ATP RKO IC50/EC50 (RKO; assay number 29, basal): > 20 µM | Basal_Viability ATP DLD-1 IC50/EC50 (DLD-1; assay number 23, basal): > 20 µM | Basal_Viability ATP SW480 IC50/EC50 (SW480; assay number 24, basal): > 20 µM | Basal_Viability ATP HT-29 IC50/EC50 (HT-29; assay number 28, basal): > 20 µM | Basal_Viability ATP SNU-C1 IC50/EC50 (SNU-C1; assay number 30, basal): > 20 µM | Basal_Viability ATP HCT116 IC50/EC50 (HCT116; assay number 25, basal): > 20 µM | Basal_Viability ATP Colo 320 IC50/EC50 (Colo320; assay number 27, basal): > 20 µM

CCCCCCCCCCCC[N+](C)(C)Cc1ccccc1 [NCGC00164245-03]
IC50 ([1]; read-out: VEGF_ADSC\ECFC Angio Hoechst NucArea summarized IC50): 6.93 µM | IC50 (DLD-1; assay number 23, basal): 0.738 µM | IC50 ([2]; read-out: VEGF_ADSC\ECFC Angio CD31 TubeArea summarized IC50): > 10 µM | IC50 (HT-29; assay number 28, basal): 0.465 µM | IC50 ([3]; read-out: GSK3b inh pretreated_Viability ATP HCT116 summarized IC50): > 20 µM | IC50 (SNU-C1; assay number 30, basal): 0.02 µM | IC50 (HeLa cells; assay number 14, 2N, read-out: Hela CellCycMod PI 2N summarized IC50): > 10 µM | IC50 (HeLa cells; assay number 15, S phase, read-out: Hela CellCycMod PI S Phase summarized IC50): > 10 µM | IC50 (HeLa cells; assay number 16, 4N, read-out: Hela CellCycMod PI 4N summarized IC50): > 10 µM | IC50 (HeLa cells; assay number 17, MI, read-out: Hela CellCycMod PI MI summarized IC50): > 10 µM | IC50 (HeLa cells; assay number 18, cell number, read-out: Hela CellCycMod PI Cell Number summarized IC50): > 10 µM

Source: publication PMC4503722, “Novel Phenotypic Outcomes Identified for a Public Collection of Approved Drugs from a Publicly Accessible Panel of Assays” (PLoS ONE, 2015)
